From paper PMC6222861, “Be Aware of Aggregators in the Search for Potential Human ecto-5′-Nucleotidase Inhibitors” (Molecules : A Journal of Synthetic Chemistry and Natural …, 2018)
Values after ≈ are worked out from the molar mass of the structure shown.

Legend:
human ecto-5′-NT [1] = molecular target: T1, human ecto-5′-NT (Homo sapiens, UniProt P21589); assay: Enzyme inhibition assay (without Triton X-100), malachite green method; assay type: biochemical; conditions: human ecto-5′-NT 3.6 nM; for IC50: AMP 500 µM, without Triton X-100, HEPES pH 7.4; for Hill slope: concentration-inhibition curve, without Triton X-100
T1 construct: purchased OriGene Technologies, Inc (Rockville, MD, USA)
T1 sequence (P21589 27-574): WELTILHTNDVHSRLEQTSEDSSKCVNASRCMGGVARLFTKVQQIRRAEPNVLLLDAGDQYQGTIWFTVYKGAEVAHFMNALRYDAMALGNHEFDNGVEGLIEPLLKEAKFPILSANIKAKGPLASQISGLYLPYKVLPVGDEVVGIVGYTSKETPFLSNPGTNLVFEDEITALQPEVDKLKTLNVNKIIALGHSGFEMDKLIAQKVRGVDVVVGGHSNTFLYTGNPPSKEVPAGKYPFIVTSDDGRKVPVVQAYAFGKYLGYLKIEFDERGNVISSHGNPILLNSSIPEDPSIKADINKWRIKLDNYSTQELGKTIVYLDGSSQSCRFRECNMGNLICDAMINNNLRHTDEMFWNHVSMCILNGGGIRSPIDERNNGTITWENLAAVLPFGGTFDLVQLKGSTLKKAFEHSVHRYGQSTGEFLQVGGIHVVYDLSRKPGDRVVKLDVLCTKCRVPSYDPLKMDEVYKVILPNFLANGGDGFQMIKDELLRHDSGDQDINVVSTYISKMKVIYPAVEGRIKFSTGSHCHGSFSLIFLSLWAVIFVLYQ
Protocol: (§1) Enzyme inhibition assays (without Triton X-100). Following procedures described in the literature, with some modifications, all assays were carried out in a reaction mixture containing HEPES buffer (10 mM; pH = 7.4), MgCl2 (2 mM), CaCl2 (1 mM), human ecto-5′-NT (3.6 nM), AMP (500 µM) as substrate and variable concentration of each tested compound (from 0 to 500 µM for A and from 0 to 100 µM for B, C and D). Stock solutions of each compound were prepared in DMSO. The final concentration of DMSO in all samples/assays/experiments was 1.0% (v/v). Results were controlled for the effect of DMSO on enzymatic activity. After incubation for 10 min at 37.0 ± 0.2 °C, the reactions were stopped by heating the system for 5 min at 99.0 ± 0.2 °C. Inorganic phosphate concentrations were quantified spectrophotometrically (at λ = 630 nm), using the malachite green method, as described in the literature. Each experiment was done in triplicate. A four-parameter logistic non-linear regression model was used to fit the experimental data, using GraphPad Prism 7.0 (GraphPad, San Diego, CA, USA). From the corresponding fitted curves, we obtained the IC50 values, except when the minimum plateau value from the dose-response curve was far from zero. For such curves, IC50 ranges were estimated based on the inhibition (%) achieved at the maximum tested concentration.

human ecto-5′-NT [2] = molecular target: T1, human ecto-5′-NT; assay: Non-ionic detergent-sensitivity evaluation: enzyme inhibition assay with 0.01% (v/v) Triton X-100; assay type: biochemical; conditions: human ecto-5′-NT 3.6 nM, AMP 500 µM, read-out: IC50 in the presence of 0.01% (v/v) Triton X-100
Protocol: as §1
(i) Non-ionic detergent-sensitivity evaluation: For each compound (A, B, C and D), enzyme inhibition assays were done, similarly as described above, using however Triton X-100 (a non-ionic detergent) at a final concentration of 0.01% (v/v) in the reaction mixture.

human ecto-5′-NT [3] = molecular target: T1, human ecto-5′-NT; assay: Enzyme concentration sensitivity evaluation: enzyme inhibition assay at 36 nM enzyme; assay type: biochemical; conditions: human ecto-5′-NT 36 nM (10-fold increase), AMP 500 µM
Protocol: as §1
(ii) Enzyme concentration sensitivity evaluation: For each compound (A, B, C and D), enzyme inhibition assays were done, similarly as described above, but using human ecto-5′-NT at 36 nM (increased by 10-fold).

[4] = Turbidimetric solubility assay; assay type: physicochemical; conditions: HEPES buffer with MgCl2 and CaCl2, aqueous buffer, kinetic from dmso stock; HEPES buffer 10 mM pH 7.4, MgCl2 2 mM, CaCl2 1 mM, 1.0% (v/v) DMSO; turbidity at 400 nm; read-out: Estimated Solubility
Protocol: The final DMSO concentration in each sample was 1.0% (v/v). Increased turbidity (light scattering) was measured at 400 nm, since all compounds have absorbance peaks below this wavelength. Each sample was prepared and measured in triplicate. All measurements were done using a Hitachi U-2010 spectrophotometer.

[5] = Turbidity at 400 nm as a function of time; assay type: physicochemical; conditions: A 500 µM, B 100 µM, D 250 µM; HEPES buffer pH 7.4, 1.0% (v/v) DMSO; precipitates seen after 60 min
Protocol: Additionally, turbidity at 400 nm as a function of time was followed for compounds A–D (Figure 6a). The concentration of each compound in these assays was near to the maximum that could be obtained, so that DMSO concentration was kept at 1.0% (v/v) in the assay buffer. […] In fact, after 60 min, precipitates at the bottom of the cuvettes were clearly observed by visual inspection (data not shown).
Figure 6 (a) Turbidity at 400 nm as a function of time measured for compounds A, B, C and D (at 500 µM, 100 µM, 80 µM and 250 µM, respectively). Each solution was prepared in HEPES buffer (10 mM), containing MgCl2 (2 mM) and CaCl2 (1 mM), pH = 7.4. Final concentration of DMSO in each sample was 1.0% (v/v); (b) Mean diameter (D) values as a function of time for compound C (80 µM) as determined by DLS. A solution of C was prepared in HEPES buffer (10 mM), containing MgCl2 (2 mM) and CaCl2 (1 mM), pH = 7.4. Final concentration of DMSO in each sample was 1.0% (v/v).
Turbidimetric assays were done using a Hitachi U-2010 spectrophotometer (Hitachi, Chiyoda, Tokyo, Japan). DLS analysis was done using a Zeta Plus Zeta-Potential Analyzer (Brookshaven Instruments Corporation, Hotsville, NY, USA) equipped with a 570 nm laser for dynamic light scattering at 90°. For enzymatic assays, absorbance measurements were done using a FlexStation 3 Multi-Mode Microplate Reader (Molecular Devices, LLC, San Jose, CA, USA).

[6] = Dynamic light scattering (DLS), aggregation kinetics; assay type: physicochemical; conditions: 80 µM, HEPES buffer pH 7.4, 1.0% (v/v) DMSO
Protocol: (iv) Dynamic light scattering (DLS): Particle size (mean zeta-average diameter D) for compound C was determined using a Zeta Plus Zeta-Potential Analyzer (Brookshaven Instruments Corporation, Hotsville, NY, USA) equipped with a 570 nm laser for dynamic light scattering at 90° [63]. Solutions of Compound C (80 µM) were prepared in HEPES buffer (10 mM), pH = 7.4. The final concentration of DMSO in each sample was 1.0% (v/v).

Row | Compound | IC50 (human ecto-5′-NT [1]) [µM] | IC50 (human ecto-5′-NT [2]) [µM] | IC50 (human ecto-5′-NT [3]) [µM] | Hill slope (human ecto-5′-NT [1]) | solubility [4] [µM] | Turbidity at 400 nm as a function of time [5] | Aggregate particle size (mean diameter) as a function of time by DLS [6]
1 | O=C(COC(=O)c1n[nH]c2ccccc12)Nc1c(F)cccc1F [Compound A, [(2,6-difluorophenyl)carbamoyl]methyl 1H-indazole-3-carboxylate] | 82.9 ± 1.1 | > 500 |  | −2.75 | 79.1 (≈ 26.2 µg/mL) | a decrease in turbidity is observed as a function of time | 
2 | CS(=O)(=O)c1ccc2nc(NC(=O)c3cc(-c4ccccc4O)[nH]n3)sc2c1 [Compound D, 5-(2-hydroxyphenyl)-N-(6-methanesulfonyl-1,3-benzothiazol-2-yl)-1H-pyrazole-3-carboxamide] | 2.2 ± 1.2 | > 36 | > 36 |  | < 0.5 | a decrease in turbidity is observed as a function of time | 

Continued by falling IC50 (human ecto-5′-NT [1]), values first:

Row | IC50 (human ecto-5′-NT [1]) [µM] | IC50 (human ecto-5′-NT [2]) [µM] | IC50 (human ecto-5′-NT [3]) [µM] | Hill slope (human ecto-5′-NT [1]) | solubility [4] [µM] | Compound | Turbidity at 400 nm as a function of time [5] | Aggregate particle size (mean diameter) as a function of time by DLS [6]
3 | 29.7 ± 1.2 | 31.7 ± 1.2 | 27.2 ± 1.1 |  |  | Nc1ncnc2c1ncn2[C@@H]1O[C@H](COP(=O)(O)OP(=O)(O)O)[C@@H](O)[C@H]1O [ADP, adenosine diphosphate, reference compound] |  | 
4 | 16.3 ± 1.1 | > 100 |  | −3.19 | 11.7 (≈ 4.23 µg/mL) | CSc1nnc(NC(=O)c2cc(-c3cc(C)cc(C)c3O)n[nH]2)s1 [Compound C, 3-(2-hydroxy-3,5-dimethylphenyl)-N-[5-(methylsulfanyl)-1,3,4-thiadiazol-2-yl]-1H-pyrazole-5-carboxamide] |  | aggregate particle size slowly increased with time
5 | 1.9 ± 1 | 2.3 ± 1.2 | > 36 | −2.90 | 8.8 (≈ 3.12 µg/mL) | O=C(Nc1nc2ccc(F)cc2s1)c1cc(-c2ccccc2O)n[nH]1 [B, N-(6-fluoro-1,3-benzothiazol-2-yl)-3-(2-hydroxyphenyl)-1H-pyrazole-5-carboxamide] | a decrease in turbidity is observed as a function of time | 
